Data published in patent US6506760B1, “Substituted hydrazinyl heteroaromatic inhibitors of thrombin” (Corvas International, Inc., priority 2000, dated 2003).
Where two headings read alike, the source gives them in different places.

Columns and labels:
Type in all cases: biochemical
human α-thrombin = human α-thrombin (Homo sapiens, UniProt P00734); assay: Thrombin (fIIa) chromogenic assay, IC50
Factor Xa = target: T1, Factor Xa (Homo sapiens, UniProt P00742); assay: Factor Xa chromogenic assay, IC50; conditions: 30 min incubation; read-out: fxa IC50 (30 min)
T1 construct: purchased Enzyme Research Laboratories, Inc. (South Bend, Ind.)
T1 sequence (P00742 235-488 limits assumed): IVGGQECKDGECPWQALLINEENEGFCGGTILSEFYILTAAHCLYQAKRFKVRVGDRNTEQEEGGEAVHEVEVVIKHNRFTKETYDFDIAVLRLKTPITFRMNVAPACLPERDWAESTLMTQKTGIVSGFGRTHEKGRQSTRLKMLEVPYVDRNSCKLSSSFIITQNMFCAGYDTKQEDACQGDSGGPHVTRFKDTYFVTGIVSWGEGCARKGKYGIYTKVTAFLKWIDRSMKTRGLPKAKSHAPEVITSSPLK
T1 sequence (P00742 41-179 partner limits assumed): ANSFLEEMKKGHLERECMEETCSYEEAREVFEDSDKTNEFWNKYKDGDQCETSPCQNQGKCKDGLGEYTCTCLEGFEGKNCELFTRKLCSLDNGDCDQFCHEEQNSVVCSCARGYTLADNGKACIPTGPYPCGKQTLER
Protocol: (§1) The ability of compounds of the present invention to act as a selective inhibitor of thrombin activity was assessed by determining the concentration of test-compound which inhibited the activity of this enzyme by 50%, (IC50), and comparing this value to that determined for all or some of the following related serine proteases: recombinant tissue plasminogen activator (rt-PA), plasmin, activated protein C, chymotrypsin, factor Xa and trypsin.
(§2) The buffer used for all assays was HBSA (10 mM HEPES, pH 7.5, 150 mM sodium chloride, 0.1% bovine serum albumin).
(§3) The assay for IC50 determinations was conducted by combining in appropriate wells of a Corning microtiter plate, 50 microliters of HBSA, 50 microliters of the test compound at a specified concentration (covering a broad concentration range) diluted in HBSA (or HBSA alone for V0 (uninhibited velocity) measurement), and 50 microliters of the enzyme diluted in HBSA. Following a 30 minute incubation at ambient temperature, 50 microliters of the substrate at the concentrations specified below were added to the wells, yielding a final total volume of 200 microliters. The initial velocity of chromogenic substrate hydrolysis was measured by the change in absorbance at 405 nm using a Thermo Max® Kinetic Microplate Reader over a 5 minute period in which less than 5% of the added substrate was utilized. The concentration of added inhibitor which caused a 50% decrease in the initial rate of hydrolysis was defined as the IC50 value.
Factor Xa catalytic activity was determined using the chromogenic substrate S-2765 (N-benzyloxycarbonyl-D-arginine-L-glycine-L-arginine-p-n itroaniline ), obtained from DiaPharma Group (Franklin, Ohio). All substrates were reconstituted in deionized water prior to use. […] Purified human Factor X was obtained from Enzyme Research Laboratories, Inc. (South Bend, Ind.) and Factor Xa (FXa) was activated and prepared from it as described [Bock, P. E., Craig, P. A., Olson, S. T., and Singh, P. Arch, Biochem. Biophys, 273:375-388 (1989)]. The enzyme was diluted into HBSA prior to assay in which the final concentration was 0.25 nM.

human plasmin = human plasmin (Homo sapiens, UniProt P00747); assay: Plasmin chromogenic assay, IC50; conditions: 30 min incubation
human plasmin, sequence (P00747 581-810 limits assumed): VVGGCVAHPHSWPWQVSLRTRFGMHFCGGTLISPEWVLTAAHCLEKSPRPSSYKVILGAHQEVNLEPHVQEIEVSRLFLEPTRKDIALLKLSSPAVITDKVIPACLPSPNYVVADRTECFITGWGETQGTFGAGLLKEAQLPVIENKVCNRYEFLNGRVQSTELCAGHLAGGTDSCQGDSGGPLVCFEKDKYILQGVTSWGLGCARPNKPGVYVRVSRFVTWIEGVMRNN
human plasmin, sequence (P00747 97-580 partner limits assumed): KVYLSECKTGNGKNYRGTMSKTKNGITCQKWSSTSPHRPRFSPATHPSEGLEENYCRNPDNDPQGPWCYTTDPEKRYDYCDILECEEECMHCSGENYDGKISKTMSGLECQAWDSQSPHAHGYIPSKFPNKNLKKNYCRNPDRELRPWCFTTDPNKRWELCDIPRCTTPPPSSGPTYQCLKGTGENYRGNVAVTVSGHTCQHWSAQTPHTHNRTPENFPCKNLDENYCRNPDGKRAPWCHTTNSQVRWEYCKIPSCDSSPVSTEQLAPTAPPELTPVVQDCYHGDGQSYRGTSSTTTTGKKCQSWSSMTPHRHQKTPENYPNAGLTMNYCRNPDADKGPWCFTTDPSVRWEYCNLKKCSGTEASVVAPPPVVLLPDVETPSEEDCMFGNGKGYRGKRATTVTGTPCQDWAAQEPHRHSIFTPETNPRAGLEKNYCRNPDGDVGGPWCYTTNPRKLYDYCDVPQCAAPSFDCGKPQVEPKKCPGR
Protocol: as §1, §2, §3
Plasmin catalytic activity was determined using the chromogenic substrate, S-2366 [L-pyroglutamyl-L-prolyl-L-arginine-p-nitroaniline hydrochloride], which was obtained from DiaPharma group. The substrate was made up in deionized water followed by dilution in HBSA prior to the assay in which the final concentration was 300 micromolar (about 2.5-times Km). Purified human plasmin was obtained from Enzyme Research Laboratories, Inc. The enzyme was diluted into HBSA prior to assay in which the final concentration was 1.0 nM.

[1] = target: T2, bovine pancreatic trypsin (Bos taurus, UniProt P00760); assay: Trypsin chromogenic assay, IC50; conditions: 30 min incubation
T2 construct: bovine pancreatic trypsin was obtained from Worthington Biochemical Corp; purchased Worthington Biochemical Corp. TRL3; host or cells: bovine pancreas
T2 sequence (P00760 24-246): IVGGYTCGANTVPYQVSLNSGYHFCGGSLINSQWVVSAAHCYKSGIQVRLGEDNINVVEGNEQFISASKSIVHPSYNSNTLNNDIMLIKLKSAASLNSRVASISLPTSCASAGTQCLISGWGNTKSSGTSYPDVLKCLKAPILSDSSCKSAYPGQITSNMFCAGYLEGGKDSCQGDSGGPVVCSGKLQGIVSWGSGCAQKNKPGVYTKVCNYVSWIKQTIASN
Protocol: as §1, §2, §3
Trypsin catalytic activity was determined using the chromogenic substrate, S-2222 (benzoyl-L-isoleucine-L-glutamic acid-[gamma-methyl ester]-L-arginine-p-nitroanilide), which was obtained from DiaPharma Group. […] Purified (3×-crystallized; TRL3) bovine pancreatic trypsin was obtained from Worthington Biochemical Corp. The enzyme was reconstituted in deionized water and diluted into HBSA prior to assay in which the final concentration was 0.5 nM.

[2] = 0 min incubation of enzyme with inhibitor, read-out: fIIa IC50 (0 min)
[3] = 30 min incubation of enzyme with inhibitor, read-out: fIIa IC50 (30 min)

1-[5-(2-Amino-6-methylpyridyl)methylcarboxamidomethyl]-3-[2-(2-chlorobenzenesulfonyl)hydrazino]-6-methylpyrazinone, Hydrotrifluoroacetate [Example 53]
IC50 (human α-thrombin; [2]): ≤ 0.1 µM
IC50 (human α-thrombin; [3]): ≤ 0.1 µM
IC50 (Factor Xa): 2.5 to 100 µM
IC50 (human plasmin): ≥ 100 µM
IC50 [1]: 2.5 to 100 µM

1-[5-(2-Amino-6-methylpyridyl)methylcarboxamidomethyl]-3-[2-(4-chlorobenzenesulfonyl)hydrazino]-6-methylpyrazinone, Hydrotrifluoroacetate [Example 55]
IC50 (human α-thrombin; [2]): ≤ 0.1 µM
IC50 (human α-thrombin; [3]): ≤ 0.1 µM
IC50 (Factor Xa): ≥ 100 µM
IC50 (human plasmin): ≥ 100 µM
IC50 [1]: ≥ 100 µM

Cc1nc(N)ccc1CNC(=O)Cn1c(C)cnc(NNC(=O)Cc2ccccc2)c1=O [Example 12, 1-[5-(2-Amino-6-methylpyridyl)methylcarboxamidomeyhyl-]6-methyl-3-(2-phenylacetylhydrazino)pyrazinone, Hydrotrifluoroacetate]
IC50 (human α-thrombin; [2]): ≤ 0.1 µM
IC50 (human α-thrombin; [3]): ≤ 0.1 µM
IC50 (Factor Xa): ≥ 100 µM
IC50 (human plasmin): 2.5 to 100 µM
IC50 [1]: ≥ 100 µM

Cc1nc(N)ccc1CNC(=O)Cn1c(C)cnc(NNS(=O)(=O)c2ccccc2)c1=O [Example 22, 1-[5-(2-Amino-6-methylpyridyl)methylcarboxamidomethyl]-6-methyl-3-(2-phenylsulfonylhydrazino)pyrazinone, Hydrotrifluoroacetate]
IC50 (human α-thrombin; [2]): ≤ 0.1 µM
IC50 (human α-thrombin; [3]): ≤ 0.1 µM
IC50 (Factor Xa): ≥ 100 µM
IC50 (human plasmin): ≥ 100 µM
IC50 [1]: 2.5 to 100 µM

Cc1nc(N)ccc1CNC(=O)Cn1c(C)cnc(NNC(=O)OCc2ccccc2Cl)c1=O [Example 24, 1-[5-(2-Amino-6-methylpyridyl)methylcarboxamidomethyl]-3-[2-(2-chlorobenzyloxycarbonyl)hydrazino]-6-methylpyrazinone, Hydrotrifluoroacetate]
IC50 (human α-thrombin; [2]): ≤ 0.1 µM
IC50 (human α-thrombin; [3]): ≤ 0.1 µM
IC50 (Factor Xa): ≥ 100 µM
IC50 (human plasmin): ≥ 100 µM
IC50 [1]: 2.5 to 100 µM

C=CCOC(=O)NNc1ncc(C)n(CC(=O)NCc2ccc(N)nc2C)c1=O [Example 25, 3-(2-Allyloxycarbonylhydrazino)-1-[5-(2-amino-6-methylpyridyl)methylcarboxamidomethyl]-6-methylpyrazinone, Hydrotrifluoroacetate]
IC50 (human α-thrombin; [2]): ≤ 0.1 µM
IC50 (human α-thrombin; [3]): ≤ 0.1 µM
IC50 (Factor Xa): ≥ 100 µM
IC50 (human plasmin): ≥ 100 µM
IC50 [1]: ≥ 100 µM

C=CCCOC(=O)NNc1ncc(C)n(CC(=O)NCc2ccc(N)nc2C)c1=O [Example 28, 1-[5-(2-Amino-6-methylpyridyl)methylcarboxamidomethyl]-3-[2-(3-butenyloxycarbonyl)hydrazino]-6-methylpyrazinone, Hydrotrifluoroacetate]
IC50 (human α-thrombin; [2]): ≤ 0.1 µM
IC50 (human α-thrombin; [3]): ≤ 0.1 µM
IC50 (Factor Xa): 2.5 to 100 µM
IC50 (human plasmin): ≥ 100 µM
IC50 [1]: ≥ 100 µM

C#CCOC(=O)NNc1ncc(C)n(CC(=O)NCc2ccc(N)nc2C)c1=O [Example 30, 1-[5-(2-Amino-6-methylpyridyl)methylcarboxamidomethyl]-6-methyl-3-(2-propargyloxycarbonylhydrazino)pyrazinone, Hydrotrifluoroacetate]
IC50 (human α-thrombin; [2]): ≤ 0.1 µM
IC50 (human α-thrombin; [3]): ≤ 0.1 µM
IC50 (Factor Xa): ≥ 100 µM
IC50 (human plasmin): ≥ 100 µM
IC50 [1]: ≥ 100 µM

Cc1nc(N)ccc1CNC(=O)Cn1c(C)cnc(NNC(=O)OCC(C)(C)C)c1=O [Example 31, 1-[5-(2-Amino-6-methylpyridyl)methylcarboxamidomeyhyl-]6-methyl-3-(2-neopentyloxycarbonylhydrazino)pyrazinone, Hydrotrifluoroacetate]
IC50 (human α-thrombin; [2]): ≤ 0.1 µM
IC50 (human α-thrombin; [3]): ≤ 0.1 µM
IC50 (Factor Xa): ≥ 100 µM
IC50 (human plasmin): ≥ 100 µM
IC50 [1]: 2.5 to 100 µM

Cc1nc(N)ccc1CNC(=O)Cn1c(C)cnc(NNC(=O)OCc2ccccc2Cl)c1=O [Example 32, 1-[5-(2-Amino-6-methylpyridyl)methylcarboxamidomethyl]-3-[2-(2-chlorobenzyloxycarbonyl)hydrazino]-6-methylpyrazinone, Hydrotrifluoroacetate]
IC50 (human α-thrombin; [2]): ≤ 0.1 µM
IC50 (human α-thrombin; [3]): ≤ 0.1 µM
IC50 (Factor Xa): ≥ 100 µM
IC50 (human plasmin): 2.5 to 100 µM
IC50 [1]: ≥ 100 µM
